Laboratory results reported in article PMC7108868, “Agonist-mediated switching of ion selectivity in TPC2 differentially promotes lysosomal function” (eLife, 2020).
Where two headings read alike, the source gives them in different places. Each block holds one compound with its values, some of them ahead of it.

Legend:
Type in all cases: cell-based
TPC2 [1] = target: T1, TPC2 (Homo sapiens, UniProt Q8NHX9, L11A/L12A); experiment: Fura-2 Ca2+ imaging, block of TPC2-A1-N response at […]
T1 construct: gene TPCN2; hTPC2^L11A/L12A (plasma membrane targeted)

TPC2 [2] = target: T2, TPC2 (Homo sapiens, UniProt Q8NHX9); experiment: endo-lysosomal patch-clamp (also FLIPR Ca2+ assay, EC50 […])
T2 construct: gene TPCN2; hTPC2, C-terminal YFP

TPC2 [3] = target: T3, TPC2 (Mus musculus, UniProt Q8BWC0); experiment: GCaMP Ca2+ imaging and endo-lysosomal patch-clamp, […]; parameters: gene Tpcn2; MmTPC2-GCaMP6s; mTPC2
TPC2 [4] = target: T2, TPC2; experiment: endo-lysosomal patch-clamp (also FLIPR Ca2+ assay, EC50 […]); remark: listed apart in the source
TPC2 [5] = target: T3, TPC2; experiment: endo-lysosomal patch-clamp, […], with TPC2 KO control; parameters: gene Tpcn2; mTPC2; endogenous TPC2 in alveolar macrophages

T1 sequence (Q8NHX9 whole entry L11A/L12A): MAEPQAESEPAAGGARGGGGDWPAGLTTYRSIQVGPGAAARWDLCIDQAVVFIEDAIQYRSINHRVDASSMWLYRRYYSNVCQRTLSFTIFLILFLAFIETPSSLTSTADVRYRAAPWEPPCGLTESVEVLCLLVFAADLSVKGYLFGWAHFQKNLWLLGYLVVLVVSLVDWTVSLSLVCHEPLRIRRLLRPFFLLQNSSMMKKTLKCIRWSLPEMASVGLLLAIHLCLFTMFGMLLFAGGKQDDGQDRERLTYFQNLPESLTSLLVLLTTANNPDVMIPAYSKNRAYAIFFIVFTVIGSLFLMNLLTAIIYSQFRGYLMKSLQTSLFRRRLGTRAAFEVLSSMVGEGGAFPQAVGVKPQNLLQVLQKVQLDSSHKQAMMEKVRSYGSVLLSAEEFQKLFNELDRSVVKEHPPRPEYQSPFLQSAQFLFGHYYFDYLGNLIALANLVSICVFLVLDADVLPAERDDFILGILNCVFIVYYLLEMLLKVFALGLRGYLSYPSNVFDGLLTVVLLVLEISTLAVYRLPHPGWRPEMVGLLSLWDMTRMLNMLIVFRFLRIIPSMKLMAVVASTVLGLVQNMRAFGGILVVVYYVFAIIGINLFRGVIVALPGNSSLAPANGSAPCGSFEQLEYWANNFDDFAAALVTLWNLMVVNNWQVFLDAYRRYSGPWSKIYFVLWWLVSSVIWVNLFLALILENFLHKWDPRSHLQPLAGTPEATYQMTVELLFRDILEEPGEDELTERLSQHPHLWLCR
T2 sequence (Q8NHX9 whole entry): as the sequence (Q8NHX9 whole entry L11A/L12A) above, with A11L, A12L counted along it
T3 sequence (Q8BWC0 whole entry): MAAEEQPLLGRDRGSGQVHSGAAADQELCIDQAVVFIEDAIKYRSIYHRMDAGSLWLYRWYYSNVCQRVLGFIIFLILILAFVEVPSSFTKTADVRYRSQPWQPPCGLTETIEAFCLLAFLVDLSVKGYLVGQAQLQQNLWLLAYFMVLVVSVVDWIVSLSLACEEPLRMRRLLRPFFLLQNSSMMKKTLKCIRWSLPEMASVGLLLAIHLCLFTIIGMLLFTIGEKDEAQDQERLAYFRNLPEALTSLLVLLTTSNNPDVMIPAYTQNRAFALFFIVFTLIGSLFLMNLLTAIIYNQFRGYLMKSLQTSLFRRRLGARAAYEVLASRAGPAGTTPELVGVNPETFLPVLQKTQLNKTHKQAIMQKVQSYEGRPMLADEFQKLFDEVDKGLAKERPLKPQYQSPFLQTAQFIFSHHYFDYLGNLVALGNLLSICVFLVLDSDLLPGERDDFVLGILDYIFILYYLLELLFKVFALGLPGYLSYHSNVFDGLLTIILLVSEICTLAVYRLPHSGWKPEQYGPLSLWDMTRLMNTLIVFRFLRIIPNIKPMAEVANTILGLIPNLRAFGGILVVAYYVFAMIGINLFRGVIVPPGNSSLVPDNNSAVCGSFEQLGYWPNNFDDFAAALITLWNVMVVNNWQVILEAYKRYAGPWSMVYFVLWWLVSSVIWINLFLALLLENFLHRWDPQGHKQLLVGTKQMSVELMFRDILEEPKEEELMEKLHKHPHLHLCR

SMILES: COc1ccc2cc1Oc1ccc(cc1)C[C@H]1c3cc(c(OC)cc3CCN1C)Oc1c(OC)c(OC)cc3c1[C@H](C2)N(C)CC3 [Tet, tetrandrine]
- Fura-2 Ca2+ imaging, block of TPC2-A1-N response at 10 μM (TPC2 [1]): responses to TPC2-A1-N were selectively blocked by the recently identified TPC2 blockers tetrandrine (Tet), raloxifene (Ral), and fluphenazine (Flu)

- EC50 (TPC2 [2]): 600 nM
SMILES: N#CC(C(=O)Nc1ccc(C(F)(F)F)cc1)=C(O)c1cc(Cl)cc(Cl)c1 [TPC2-A1-N, 2-Cyano-3-(3,5-dichlorophenyl)−3-hydroxy-N-(4-(trifluoromethyl)phenyl)acrylamide]
- GCaMP Ca2+ imaging and endo-lysosomal patch-clamp, 10 μM (TPC2 [3]): mouse TPC2 fused to GCaMP6 (MmTPC2^GCaMP) confirmed that TPC2-A1-N evoked larger responses than TPC2-A1-P

SMILES: Cc1c(C(=O)O)cc(-c2cc(Br)ccc2OC(F)(F)F)n1CC1CCCCC1 [TPC2-A1-P, 5-(5-Bromo-2-(trifluoromethoxy)phenyl)−1-(cyclohexylmethyl)−2-methyl-1H-pyrrole-3-carboxylic acid]
- EC50 (TPC2 [4]): 600 nM
- endo-lysosomal patch-clamp, 10 μM, with TPC2 KO control (TPC2 [5]): both TPC2-A1-N and TPC2-A1-P evoked measurable endogenous TPC2-like currents in macrophages from wild-type animals

SMILES: OCCN1CCN(CCCN2c3ccccc3Sc3ccc(C(F)(F)F)cc32)CC1 [Flu, fluphenazine]
- Fura-2 Ca2+ imaging, block of TPC2-A1-N response at 10 μM (TPC2 [1]): responses to TPC2-A1-N were selectively blocked by the recently identified TPC2 blockers tetrandrine (Tet), raloxifene (Ral), and fluphenazine (Flu)

SMILES: O=C(c1ccc(OCCN2CCCCC2)cc1)c1c(-c2ccc(O)cc2)sc2cc(O)ccc12 [Ral, raloxifene]
- Fura-2 Ca2+ imaging, block of TPC2-A1-N response at 10 μM (TPC2 [1]): responses to TPC2-A1-N were selectively blocked by the recently identified TPC2 blockers tetrandrine (Tet), raloxifene (Ral), and fluphenazine (Flu)
